Measured values from patent publication US7601738B2, “Excitatory amino acid receptor antagonists” (Eli Lilly and Company, priority 2001, dated 2009).

Row | melting point | SMILES
1 | > 177 °C (dec.) | Cc1ccc(C(=O)O)c(S[C@H]2CC[C@H]3CN[C@H](C(=O)O)C[C@H]3C2)c1.Cl
2 | > 183 °C (dec.) | Cl.O=C(O)c1cc2ccccc2cc1S[C@H]1CC[C@H]2CN[C@H](C(=O)O)C[C@H]2C1
